Reference: patent publication US9073940B2, “Tricyclic pyrazol amine derivatives” (MERCK SERONO SA, priority 2009, dated 2015)

Test system: 4 PI3K isoforms (Human recombinant GST-PI3K)
Experiment: PI3K scintillation proximity assay, best IC50 obtained with the four isoforms (alpha, beta, delta, gamma)
Assay type: biochemical
Conditions: best IC50 obtained with the four isoforms of PI3K; read-out: Best potency measured on the 4 PI3K isoforms

Row | Compound | IC50
1 | O=C(c1nn(C2CCCN(CCO)C2)c2c1CS(=O)(=O)c1ccccc1-2)N1CCOCC1 (stereo not drawn) [Example 134, 2-{3-[3-(Morpholin-4-ylcarbonyl)-5,5-dioxidothiochromeno[4,3-c]pyrazol-1 (4H)-yl]piperidin-1-yl}ethanol] | 815 nM
2 | CS(=O)(=O)N1CCCC(n2nc(C(=O)N3CCOCC3)c3c2-c2ccccc2S(=O)(=O)C3)C1 (stereo not drawn) [Example 135, 1[1-(Methylsulfonyl)piperidin-3-yl]-3-(morpholin-4-ylcarbonyl)-1,4-dihydrothiochromeno[4,3-c]pyrazole 5,5-dioxide] | 994 nM
3 | CS(=O)(=O)c1cccc(-n2nc(C(=O)N3CCOCC3)c3c2-c2ccccc2S(=O)(=O)C3)c1 [Example 138, 1-[3-(Methylsulfonyl)phenyl]-3-(morpholin-4-ylcarbonyl)-1,4-dihydrothiochromeno[4,3-c]pyrazole 5,5-dioxide] | 2560 nM
4 | Cc1ccc2c(c1)S(=O)(=O)Cc1c(C(=O)N3CCOCC3)nn(-c3ccccc3)c1-2 [Example 139, 7-Methyl-3-(morpholin-4-ylcarbonyl)-1-phenyl-1,4-dihydrothiochromeno[4,3-c]pyrazole 5,5-dioxide] | 1840 nM
5 | NCCCC1c2c(C(=O)N3CCOCC3)nn(-c3ccccc3)c2-c2ccccc2S1(=O)=O (stereo not drawn) [Example 140, 3-[3-(Morpholin-4-ylcarbonyl)-5,5-dioxido-1-phenyl-1,4-dihydrothiochromeno[4,3-c]pyrazol-4-yl]propan-1-amine] | 4520 nM
6 | O=C(c1nn(-c2cccc(CO)c2)c2c1CS(=O)(=O)c1ccccc1-2)N1CCOCC1 [Example 141, {3-[3-(Morpholin-4-ylcarbonyl)-5,5-dioxidothiochromeno[4,3-c]pyrazol-1(4H)-yl]phenyl}methanol] | 2250 nM
7 | COC1CCN(C(=O)c2cccc(-n3nc(C(=O)N4CCOCC4)c4c3-c3ccccc3S(=O)(=O)C4)c2)CC1 [Example 142, 1-{3-[(4-Methoxypiperidin-1-yl)carbonyl]phenyl}-3-(morpholin-4-ylcarbonyl)-1,4-dihydrothiochromeno[4,3-c]pyrazole 5,5-dioxide] | 302 nM
8 | O=C(c1cccc(-n2nc(C(=O)N3CCOCC3)c3c2-c2ccccc2S(=O)(=O)C3)c1)N1CCC(O)CC1 [Example 143, 1-{3-[3-(Morpholin-4-ylcarbonyl)-5,5-dioxidothiochromeno[4,3-c]pyrazol-1 (4H)-yl]benzoyl}piperidin-4-ol] | 371 nM
9 | O=C(c1cccc(-n2nc(C(=O)N3CCOCC3)c3c2-c2ccccc2S(=O)(=O)C3)c1)N1CCCC(O)C1 (stereo not drawn) [Example 144, 1-{3-[3-(Morpholin-4-ylcarbonyl)-5,5-dioxidothiochromeno[4,3-c]pyrazol-1 (4H)-yl]benzoyl}piperidin-3-ol] | 348 nM
10 | O=C(c1cccc(-n2nc(C(=O)N3CCOCC3)c3c2-c2ccccc2S(=O)(=O)C3)c1)N1CCCC(CO)C1 (stereo not drawn) [Example 145, (1-{3-[3-(Morpholin-4-ylcarbonyl)-5,5-dioxidothiochromeno[4,3-c]pyrazol-1 (4H)-yl]benzoyl}piperidin-3-yl)methanol] | 502 nM
11 | O=C(c1cccc(-n2nc(C(=O)N3CCOCC3)c3c2-c2ccccc2S(=O)(=O)C3)c1)N1CCS(=O)(=O)CC1 [Example 146, 1-{3-[(1,1-Dioxidothiomorpholin-4-yl)carbonyl]phenyl}-3-(morpholin-4-ylcarbonyl)-1,4-dihydrothiochromeno[4,3-c]pyrazole 5,5-dioxide] | 319 nM
12 | O=C(c1ccc(-n2nc(C(=O)N3CCOCC3)c3c2-c2ccccc2S(=O)(=O)C3)cc1)N1CCOCC1 [Example 147, 3-(Morpholin-4-ylcarbonyl)-1-[4-(morpholin-4-ylcarbonyl)phenyl]-1,4-dihydrothiochromeno[4,3-c]pyrazole 5,5-dioxide] | 274 nM
13 | O=C(NC1CCOCC1)c1cccc(-n2nc(C(=O)N3CCOCC3)c3c2-c2ccccc2S(=O)(=O)C3)c1 [Example 148, 3-[3-(Morpholin-4-ylcarbonyl)-5,5-dioxidothiochromeno[4,3-c]pyrazol-1(4H)-yl]-N-(tetrahydro-2H-pyran-4-yl)benzamide] | 1260 nM
14 | O=C(Nc1cccnc1)c1cccc(-n2nc(C(=O)N3CCOCC3)c3c2-c2ccccc2S(=O)(=O)C3)c1 [Example 149, 3-[3-(Morpholin-4-ylcarbonyl)-5,5-dioxidothiochromeno[4,3-c]pyrazol-1(4H)-yl]-N-pyridin-3-ylbenzamide] | 926 nM
15 | O=C(c1nn(-c2ccccc2)c2c1CS(=O)(=O)c1ccncc1-2)N1CCOCC1 [Example 150, 3-(Morpholin-4-ylcarbonyl)-1-phenyl-1,4-dihydropyrazolo[3′,4′:4,5]thiopyrano[3,2-c]pyridine 5,5-dioxide] | 3050 nM
16 | O=C(c1ccc(-n2nc(C(=O)N3CCOCC3)c3c2-c2ccccc2S(=O)(=O)C3)cc1)N1CCCCC1 [Example 151, 3-(Morpholin-4-ylcarbonyl)-1-[4-(piperidin-1-ylcarbonyl)phenyl]-1,4-dihydrothiochromeno[4,3-c]pyrazole 5,5-dioxide] | 238 nM
17 | CN(C)c1ccc2c(c1)S(=O)(=O)Cc1c(C(=O)N3CCOCC3)nn(-c3ccccc3)c1-2 [Example 152, N,N-Dimethyl-3-(morpholin-4-ylcarbonyl)-1-phenyl-1,4-dihydrothiochromeno[4,3-c]pyrazol-7-amine 5,5-dioxide] | 5020 nM
18 | O=C(c1nn(-c2ccc(CO)cc2)c2c1CS(=O)(=O)c1ccccc1-2)N1CCOCC1 [Example 153, {4-[3-(Morpholin-4-ylcarbonyl)-5,5-dioxidothiochromeno[4,3-c]pyrazol-1(4H)-yl]phenyl}methanol] | 1060 nM
19 | O=C(c1nn(-c2cccc(N3CCOCC3)c2)c2c1CS(=O)(=O)c1ccccc1-2)N1CCOCC1 [Example 154, 3-(Morpholin-4-ylcarbonyl)-1-(3-morpholin-4-ylphenyl)-1,4-dihydrothiochromeno[4,3-c]pyrazole 5,5-dioxide] | 673 nM
20 | O=C(c1nn(-c2ccc(N3CCOCC3)cc2)c2c1CS(=O)(=O)c1ccccc1-2)N1CCOCC1 [Example 155, 3-(Morpholin-4-ylcarbonyl)-1-(4-morpholin-4-ylphenyl)-1,4-dihydrothiochromeno[4,3-c]pyrazole 5,5-dioxide] | 3940 nM
21 | COCCNc1ccc2c(c1)-c1c(c(C(=O)N3CCOCC3)nn1-c1ccccc1)CS2(=O)=O [Example 156, N-(2-Methoxyethyl)-3-(morpholin-4-ylcarbonyl)-1-phenyl-1,4-dihydrothiochromeno[4,3-c]pyrazol-8-amine 5,5-dioxide] | 902 nM
22 | O=C(c1nn(-c2cccc(-c3ccccc3)c2)c2c1CS(=O)(=O)c1ccccc1-2)N1CCOCC1 [Example 157, 1-Biphenyl-3-yl-3-(morpholin-4-ylcarbonyl)-1,4-dihydrothiochromeno[4,3-c]pyrazole 5,5-dioxide] | 764 nM
23 | O=C(c1nn(-c2ccccc2)c2c1CS(=O)(=O)c1cc(C(F)(F)F)ccc1-2)N1CCOCC1 [Example 158, 3-(Morpholin-4-ylcarbonyl)-1-phenyl-7-(trifluoromethyl)-1,4-dihydrothiochromeno[4,3-c]pyrazole 5,5-dioxide] | 3060 nM
24 | COC1CCCN(C(=O)c2cccc(-n3nc(C(=O)N4CCOCC4)c4c3-c3ccccc3S(=O)(=O)C4)c2)C1 (stereo not drawn) [Example 159, 1-{3-[(3-Methoxypiperidin-1-yl)carbonyl]phenyl}-3-(morpholin-4-ylcarbonyl)-1,4-dihydrothiochromeno[4,3-c]pyrazole 5,5-dioxide] | 246 nM
